{"source": "patent US20160136284A1", "about": "“GLIOMA TREATMENT” (priority 2012, published 2016)", "system": "synaptophysin", "experiment": "Synaptophysin ELISA of rat brain homogenates after carboplatin infusion", "assay_type": "in vivo", "conditions": "72 hours after infusion", "method": "Brain tissue homogenates were prepared from dissected samples of unfixed frozen hemispheres from rats at 72 hours after infusion of either artificial CSF (control) or carboplatin at concentrations of 0.36 and 0.72 mg/ml. Tissue samples incorporating the overlying cerebral cortex (approximately 200 mg) were dissected and homogenised for 75 s using a Precellys 24 automated tissue homogeniser (Stretton Scientific) with 2.3 mm silica beads (Biospec) in 1% SDS, 10 mM tris base (pH 6.0), 0.1 mM sodium chloride, and the protease inhibitors aprotinin (1 μg/ml; Sigma) and PMSF (10 μM; Sigma). The resultant crude tissue homogenates were centrifuged at 13,000 rpm for 15 min at 4° C., and the supernatants aliquoted and stored at −80° C.\nNinety-six-well plates (Nunc Maxisorp) were coated with primary rabbit anti-synaptophysin polyclonal antibody (Abeam) at a concentration of 1 μg/ml, and incubated overnight at 4° C. After 5 washes with wash buffer, non-specific binding was blocked with the addition of 1% BSA/PBS for 2 hours. After 5 washes with wash buffer, serial dilutions of recombinant synaptophysin or the supernatant of crude homogenates were added to wells in triplicate, and incubated at room temperature for 2 hours. […] Plates were read in a microplate reader at 405 nm (BMG Labtech).", "data": [{"compound": "N.N.O=C([O-])C1(C(=O)[O-])CCC1.[Pt+2]", "note": "[carboplatin]", "values": [{"measurement": "reduction in synaptophysin (indicative of toxicity)", "setting": "0.36 mg/ml", "value": "not at 0.36 mg/ml"}, {"measurement": "reduction in synaptophysin (indicative of toxicity)", "setting": "0.72 mg/ml", "value": "observed at 0.72 mg/ml"}]}]}
